One may read the Tmax as the time at which the peak concentration occurs. For orientation: Cmax means the maximum level reached in the sampled fluid or tissue. One may read the melting point as the temperature of the solid-liquid transition. The term IC50 denotes the concentration needed to halve the response being measured. Higher therefore signals lower potency.

Molecules are shown by their SMILES. Where two headings read alike, the source gives them in different places.

A short description of series [1]: In vivo pancreas distribution study. The arrangement: species or system male CD-1 mice. Particulars: male, CD-1, mouse, ip, mice. As to the method: The experiments were performed in agreement with the Italian Law D. L.vo 4 marzo 2014, n. 26. The treatments involved male CD-1 mice and a unique number on the tail identified each animal. Mice were housed, in groups of four, in cages suitable for the species. After 5 days of adaptation to the local housing conditions, animals were housed in a single, exclusive, air-conditioned room to provide a minimum of 15 air changes/hour. The environmental controls were set to maintain the temperature at around 22°C and the relative humidity within the range 50 to 60%, along with an approximate 12:12 h light/dark cycle automatically controlled. Food (Mucedola Standard GLP diet) and water were available ad libitum throughout the entire duration of the study. All animals were weighted on the day of the treatment.
Mice (n = 4/time point) received an intraperitoneal administration (i.p., 10 mL/kg) of RC-106 at 10 mg/kg. CD-1 male mice were exsanguinated under anesthesia (isoflurane) from the aorta at the following time points: 5, 10, 30, 120, 240, and 480 min. Blood samples were collected in tubes containing heparin, gently mixed and immediately placed on ice. Afterward, they have been centrifuged (3500 × g, at 4°C for 15 min), the obtained plasma has been collected and transferred to individually labeled tubes and frozen at -20°C until the analysis. Plasma samples were used for quantification of RC-106. […] The organ was homogenized using a Velp OV5 homogenizer with 20 mM ammonium formiate buffer in a ratio of 1 g of tissue per 10 mL of buffer.
20 mg/mL stock solution (s.s.) of RC-106 was prepared by dissolving the compound in DMSO. 1 mL of 5% Tween80 in H2O was slowly added to 500 μL of s.s. under stirring. Then 8.5 mL of water was gently spiked to obtain the 1 mg/mL formulation of RC-106.
Standard curves of RC-106 were prepared for plasma and pancreas homogenate, and analyzed together with each QC and unknown sample set. For the PK and pancreas distribution sample analysis, plasma and pancreas homogenate samples (50 μL) were spiked in 200 μL of IS in MeOH (0.1 μg/mL of RC-33), followed by 2 min vortex mixing. Samples were centrifuged and transferred in UFLC vials. 5 μL aliquots of the collected samples were injected into the LC-MS/MS system. Standard calibration graphs were constructed by linear least-squares regression analysis on the analyte/IS area ratio plotted against sample concentration. Calibration ranges were from 5 to 1000 ng/mL for plasma, and from 5 to 500 ng/mL for pancreas homogenate. Accuracy values were determined in triplicates at three different concentrations (high, medium, and low) in the range of linearity of the calibration curves.
Analyses were acquired on a Shimadzu AC20 UFLC system interfaced with an API 3200 Triple Quadrupole detector (AB Sciex). Data acquisition and control were performed using the Analyst^TM 6.1 (Applied Biosystems) Software. A Phenomenex Gemini-NX C18 (50 mm × 2 mm, 5 μm) column was selected to carry out the analytical evaluations. A gradient method was set up (Supplementary Table S1) and it provided the employment of water and methanol, both containing 0.1% of formic acid, at a flow rate of 0.3 mL/min. The LC eluate was directly introduced into the MS interface using the ESI in the positive ion mode. The MRM transitions m/z 181.2 were tracked (Supplementary Table S2).

The subject of series [2] is Panc-1 spheroids. Description: Analysis of morphological parameters of 3D tumor spheroids. The format is cell-based. Particulars: 50 μM, 48 h. As to the method: (§1) Spheroids were obtained as previously described ([Zanoni et al., 2016]). Briefly, a rotatory cell culture system RCCS (Synthecon Inc., Houston, TX, United States) was used. The rotary systems were placed inside a humidified 37°C, 5% CO2 incubator and all procedures were performed in sterile conditions. Single cell suspensions of about 1 × 10^6 cells/ml of Panc-1 were placed in the 50 mL rotating chamber at an initial speed of 12 rpm. Speed was increased as cells formed aggregates to avoid sedimentation. The culture medium was changed every 4 days and tumor spheroids with an equivalent diameter ranging from about 500–1300 μm were obtained in around 15 days. After formation, spheroids were transferred into a 96-well low-attachment culture plates (Corning Inc., Corning, NY, United States; one spheroid/well), containing 100 μL of fresh culture medium per well.
The analysis of morphological parameters were performed as previously described ([Piccinini et al., 2017]). Briefly, an inverted Olympus IX51 microscope (Olympus Corporation, Tokyo, Japan), equipped with a Nikon Digital Sight DS-Vi1 camera (CCD vision sensor, square pixels of 4.4 μm side length, 1600 × 1200 pixel resolution, 8-bit gray level; Nikon Instruments, Spa. Florence, Italy) was used to take images and for morphological analyses. […]

The test system of series [3] is Panc-1 spheroids. Kind of series: CellTiter-Glo 3D cell viability assay. Type of series: cell-based. Particulars: Homo sapiens, PANC-1, 48 h, 3D spheroids, diameter up to 600 μm, 12.5–50 μM. As to the method:
as §1
Cell viability of Panc-1 spheroids was measured using a 3D cell viability assay (Promega, Milan, Italy). Briefly, homogeneous spheroids were removed from the 96-well low-attachment culture plate and placed separately in single wells of a 96-well opaque culture plate (BD Falcon). CellTiter-Glo® 3D reagent was added to each well and the luminescence signal was read after 30 min with the GloMax® bioluminescent reader (Promega).
The analysis of morphological parameters were performed as previously described ([Piccinini et al., 2017]). […]

The test system of series [4] is S1R. Further details: method as in Rui et al., 2016; Rossi et al., 2017. As to conditions: ref Rui et al., 2016; Rossi et al., 2017; cited from earlier work.

In the case of `C/C(=C\CN1CCC(Cc2ccccc2)CC1)c1ccc2ccccc2c1` [RC-106, (E)-4-benzyl-1-(3-(naphthalen-2-yl)but-2-en-1-yl)piperidine], the melting point fell in the range of 221 to 222 °C. Moreover, the AUC(0-t) in series [1] (pancreas, 10 mg/kg, i.p., 10 mg/kg, read-out: AUC0-t, pancreas (converted)) was 28.8 µg·h/mL. In series [1] (pancreas, 5 min after i.p. 10 mg/kg, read-out: pancreas C), the concentration at 5 min is 25300 ng/g. For the same compound, the concentration at 10 min in series [1] (pancreas, 10 min after i.p. 10 mg/kg, read-out: pancreas C) was found to be 13900 ng/g. The concentration at 30 min in series [1] (pancreas, 30 min after i.p. 10 mg/kg, read-out: pancreas C) came to 11100 ng/g. Also, the concentration at 120 min in series [1] (pancreas, 120 min after i.p. 10 mg/kg, read-out: pancreas C) was 2710 ng/g. The concentration at 240 min in series [1] (pancreas, 240 min after i.p. 10 mg/kg, read-out: pancreas C) was 2310 ng/g. Further, the concentration at 480 min in series [1] (pancreas, 480 min after i.p. 10 mg/kg, read-out: pancreas C) was 995 ng/g. Also, the time to peak (Tmax) in series [1] (pancreas, 10 mg/kg) was 5 min. In series [1] (pancreas, i.p., 10 mg/kg, read-out: Cmax, pancreas), the Cmax was found to be 25300 ± 5600 ng/g. Moreover, the Cmax in series [1] (pancreas, i.p., 10 mg/kg, read-out: Cmax, pancreas (molar)) is ~70 µM. Moreover, in series [1] (pancreas, i.p., 10 mg/kg, read-out: t1/2, pancreas), the half-life came to 4 h. Also, in series [1] (pancreas/plasma, 10 mg/kg, i.p., 10 mg/kg, read-out: AUC0-t pancreas/AUC0-t plasma), the Kp is ~25. The “3D morphological parameters of spheroids” value in series [2] was “complete disaggregation of spheroid organization and cytoarchitecture”. The compound further returned a half-maximal inhibitory concentration (IC50) in series [3] of 39.6 µM. Moreover, the S1R modulatory profile result in series [4] is reported as “S1R antagonist”.

Source of the values: PMC6530361, “Anti-tumor Efficacy Assessment of the Sigma Receptor Pan Modulator RC-106. A Promising Therapeutic Tool for Pancreatic Cancer” (Frontiers in Pharmacology, 2019).
